Results published in patent US20100242139A1, “XENOHORMESIS BASED COMPOSITIONS AND METHODS” (President and Fellows of Harvard College, priority 2006, published 2010).

Legend:
Type in all cases: biochemical
NEK3(h) = NEK3(h) (Homo sapiens, UniProt P51956); experiment: kinase panel activity, NEK3(h); details: compound at 20 μM; vs reference with no compound
Ros(h) = Ros(h) (Homo sapiens, UniProt P08922); experiment: kinase panel activity, Ros(h); details: compound at 20 μM; vs reference with no compound
Pim-1(h) = Pim-1(h) (Homo sapiens, UniProt P11309); experiment: kinase panel activity, Pim-1(h); details: compound at 20 μM; vs reference with no compound
SGK2(h) = SGK2(h) (Homo sapiens, UniProt Q9HBY8); experiment: kinase panel activity, SGK2(h); details: compound at 20 μM; vs reference with no compound
NLK(h) = NLK(h) (Homo sapiens, UniProt Q9UBE8); experiment: kinase panel activity, NLK(h); details: compound at 20 μM; vs reference with no compound
IKKα(h) = IKKα(h) (Homo sapiens, UniProt O15111); experiment: kinase panel activity, IKKα(h); details: compound at 20 μM; vs reference with no compound
Rsk1(h) = Rsk1(h) (Homo sapiens, UniProt Q15418); experiment: kinase panel activity, Rsk1(h); details: compound at 20 μM; vs reference with no compound
MST1(h) = MST1(h) (Homo sapiens, UniProt Q13043); experiment: kinase panel activity, MST1(h); details: compound at 20 μM; vs reference with no compound
CDK5/p35(h) = CDK5/p35(h) (Homo sapiens, UniProt Q00535); experiment: kinase panel activity, CDK5/p35(h); details: compound at 20 μM; vs reference with no compound
JNK1α1(h) = JNK1α1(h) (Homo sapiens, UniProt P45983); experiment: kinase panel activity, JNK1α1(h); details: compound at 20 μM; vs reference with no compound
CDK9/cyclin T1(h) = CDK9/cyclin T1(h) (Homo sapiens, UniProt P50750); experiment: kinase panel activity, CDK9/cyclin T1(h); details: compound at 20 μM; vs reference with no compound
cKit(h) = cKit(h) (Homo sapiens, UniProt P10721); experiment: kinase panel activity, cKit(h); details: compound at 20 μM; vs reference with no compound
SAPK2a(T106M)(h) = SAPK2a(T106M)(h) (Homo sapiens, UniProt Q16539, T106M); experiment: kinase panel activity, SAPK2a(T106M)(h); details: compound at 20 μM; vs reference with no compound
SAPK2a(h) = SAPK2a(h) (Homo sapiens, UniProt Q16539); experiment: kinase panel activity, SAPK2a(h); details: compound at 20 μM; vs reference with no compound
Flt1(h) = Flt1(h) (Homo sapiens, UniProt P17948); experiment: kinase panel activity, Flt1(h); details: compound at 20 μM; vs reference with no compound
FGFR1(h) = FGFR1(h) (Homo sapiens, UniProt P11362); experiment: kinase panel activity, FGFR1(h); details: compound at 20 μM; vs reference with no compound
NEK6(h) = NEK6(h) (Homo sapiens, UniProt Q9HC98); experiment: kinase panel activity, NEK6(h); details: compound at 20 μM; vs reference with no compound
MSK2(h) = MSK2(h) (Homo sapiens, UniProt O75676); experiment: kinase panel activity, MSK2(h); details: compound at 20 μM; vs reference with no compound
PIk3(h) = PIk3(h) (Homo sapiens, UniProt Q9H4B4); experiment: kinase panel activity, PIk3(h); details: compound at 20 μM; vs reference with no compound
CDK7/cyclinH/MAT1(h) = CDK7/cyclinH/MAT1(h) (Homo sapiens, UniProt P50613); experiment: kinase panel activity, CDK7/cyclinH/MAT1(h); details: compound at 20 μM; vs reference with no compound
PDGFRβ(h) = PDGFRβ(h) (Homo sapiens, UniProt P09619); experiment: kinase panel activity, PDGFRβ(h); details: compound at 20 μM; vs reference with no compound
DAPK2(h) = DAPK2(h) (Homo sapiens, UniProt Q9UIK4); experiment: kinase panel activity, DAPK2(h); details: compound at 20 μM; vs reference with no compound
SGK(h) = SGK(h) (Homo sapiens, UniProt O00141); experiment: kinase panel activity, SGK(h); details: compound at 20 μM; vs reference with no compound
PKBβ(h) = PKBβ(h) (Homo sapiens, UniProt P31751); experiment: kinase panel activity, PKBβ(h)
ALK(h) = ALK(h) (Homo sapiens, UniProt Q9UM73); experiment: kinase panel activity, ALK(h); details: compound at 20 μM; vs reference with no compound
DAPK1(h) = DAPK1(h) (Homo sapiens, UniProt P53355); experiment: kinase panel activity, DAPK1(h); details: compound at 20 μM; vs reference with no compound
PDGFRα(h) = PDGFRα(h) (Homo sapiens, UniProt P16234); experiment: kinase panel activity, PDGFRα(h); details: compound at 20 μM; vs reference with no compound
CDK5/p25(h) = CDK5/p25(h) (Homo sapiens, UniProt Q00535); experiment: kinase panel activity, CDK5/p25(h); details: compound at 20 μM; vs reference with no compound
SAPK4(h) = SAPK4(h) (Homo sapiens, UniProt O15264); experiment: kinase panel activity, SAPK4(h); details: compound at 20 μM; vs reference with no compound
EGFR(h) = EGFR(h) (Homo sapiens, UniProt P00533); experiment: kinase panel activity, EGFR(h); details: compound at 20 μM; vs reference with no compound
Aurora-A(h) = Aurora-A(h) (Homo sapiens, UniProt O14965); experiment: kinase panel activity, Aurora-A(h); details: compound at 20 μM; vs reference with no compound
Met(h) = Met(h) (Homo sapiens, UniProt P08581); experiment: kinase panel activity, Met(h); details: compound at 20 μM; vs reference with no compound
LKB1(h) = LKB1(h) (Homo sapiens, UniProt Q15831); experiment: kinase panel activity, LKB1(h); details: compound at 20 μM; vs reference with no compound
TrkB(h) = TrkB(h) (Homo sapiens, UniProt Q16620); experiment: kinase panel activity, TrkB(h); details: compound at 20 μM; vs reference with no compound
MST2(h) = MST2(h) (Homo sapiens, UniProt Q13188); experiment: kinase panel activity, MST2(h); details: compound at 20 μM; vs reference with no compound
PKBα(h) = PKBα(h) (Homo sapiens, UniProt P31749); experiment: kinase panel activity, PKBα(h)
Fgr(h) = Fgr(h) (Homo sapiens, UniProt P09769); experiment: kinase panel activity, Fgr(h); details: compound at 20 μM; vs reference with no compound
Fms(h) = Fms(h) (Homo sapiens, UniProt P07333); experiment: kinase panel activity, Fms(h); details: compound at 20 μM; vs reference with no compound
CSK(h) = CSK(h) (Homo sapiens, UniProt P41240); experiment: kinase panel activity, CSK(h); details: compound at 20 μM; vs reference with no compound
p70S6K(h) = p70S6K(h) (Homo sapiens, UniProt P23443); experiment: kinase panel activity, p70S6K(h); details: compound at 20 μM; vs reference with no compound
[1] = compound at 20 μM, vs reference with no compound

Sequence of PKBα(h) (P31749 whole entry): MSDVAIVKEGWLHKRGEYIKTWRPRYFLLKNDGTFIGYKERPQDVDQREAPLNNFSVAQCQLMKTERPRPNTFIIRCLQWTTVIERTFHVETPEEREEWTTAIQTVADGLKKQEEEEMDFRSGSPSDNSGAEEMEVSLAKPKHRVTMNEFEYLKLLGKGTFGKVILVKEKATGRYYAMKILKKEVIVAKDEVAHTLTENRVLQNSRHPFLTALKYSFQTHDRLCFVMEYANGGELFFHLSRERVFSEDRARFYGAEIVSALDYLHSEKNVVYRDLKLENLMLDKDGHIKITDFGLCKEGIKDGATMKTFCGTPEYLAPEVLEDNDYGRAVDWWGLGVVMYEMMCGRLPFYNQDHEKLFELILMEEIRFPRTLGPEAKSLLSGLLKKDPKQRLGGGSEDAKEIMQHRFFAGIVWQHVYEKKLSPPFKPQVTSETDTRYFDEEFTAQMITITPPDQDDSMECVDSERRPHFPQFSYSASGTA
Sequence of IKKα(h) (O15111 whole entry): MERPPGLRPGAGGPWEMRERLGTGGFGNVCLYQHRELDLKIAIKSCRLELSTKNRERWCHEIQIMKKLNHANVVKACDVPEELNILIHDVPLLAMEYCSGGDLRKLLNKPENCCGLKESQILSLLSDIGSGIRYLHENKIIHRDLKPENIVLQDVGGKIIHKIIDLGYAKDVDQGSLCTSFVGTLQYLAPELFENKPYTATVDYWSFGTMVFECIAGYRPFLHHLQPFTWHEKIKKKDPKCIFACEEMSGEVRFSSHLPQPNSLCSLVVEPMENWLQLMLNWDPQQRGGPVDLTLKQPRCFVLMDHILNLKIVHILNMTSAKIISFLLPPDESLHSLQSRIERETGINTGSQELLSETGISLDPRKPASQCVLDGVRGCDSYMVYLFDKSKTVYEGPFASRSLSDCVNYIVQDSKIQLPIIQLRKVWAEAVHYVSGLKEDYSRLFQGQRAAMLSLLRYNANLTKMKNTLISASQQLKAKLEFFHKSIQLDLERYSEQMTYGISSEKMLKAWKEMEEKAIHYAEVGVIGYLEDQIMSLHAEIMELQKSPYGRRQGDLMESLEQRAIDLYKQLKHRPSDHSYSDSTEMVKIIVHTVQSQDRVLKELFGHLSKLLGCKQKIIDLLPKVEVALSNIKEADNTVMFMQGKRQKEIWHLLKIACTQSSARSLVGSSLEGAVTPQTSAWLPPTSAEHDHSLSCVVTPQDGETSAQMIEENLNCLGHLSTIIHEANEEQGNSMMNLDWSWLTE
Sequence of PKBβ(h) (P31751 whole entry): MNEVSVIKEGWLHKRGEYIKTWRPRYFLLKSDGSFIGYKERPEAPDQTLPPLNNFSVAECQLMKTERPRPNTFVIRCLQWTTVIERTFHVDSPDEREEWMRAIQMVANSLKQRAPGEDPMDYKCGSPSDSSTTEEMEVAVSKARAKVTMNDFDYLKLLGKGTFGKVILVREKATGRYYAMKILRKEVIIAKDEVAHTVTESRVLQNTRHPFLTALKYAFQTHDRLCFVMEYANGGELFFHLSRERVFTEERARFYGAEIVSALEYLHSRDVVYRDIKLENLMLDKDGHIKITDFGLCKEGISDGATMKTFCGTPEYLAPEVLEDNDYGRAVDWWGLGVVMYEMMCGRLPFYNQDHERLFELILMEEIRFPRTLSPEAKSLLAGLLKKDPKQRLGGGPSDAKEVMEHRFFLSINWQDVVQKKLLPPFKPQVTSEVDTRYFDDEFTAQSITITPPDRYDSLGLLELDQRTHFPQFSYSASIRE
Sequence of SGK(h) (O00141 whole entry): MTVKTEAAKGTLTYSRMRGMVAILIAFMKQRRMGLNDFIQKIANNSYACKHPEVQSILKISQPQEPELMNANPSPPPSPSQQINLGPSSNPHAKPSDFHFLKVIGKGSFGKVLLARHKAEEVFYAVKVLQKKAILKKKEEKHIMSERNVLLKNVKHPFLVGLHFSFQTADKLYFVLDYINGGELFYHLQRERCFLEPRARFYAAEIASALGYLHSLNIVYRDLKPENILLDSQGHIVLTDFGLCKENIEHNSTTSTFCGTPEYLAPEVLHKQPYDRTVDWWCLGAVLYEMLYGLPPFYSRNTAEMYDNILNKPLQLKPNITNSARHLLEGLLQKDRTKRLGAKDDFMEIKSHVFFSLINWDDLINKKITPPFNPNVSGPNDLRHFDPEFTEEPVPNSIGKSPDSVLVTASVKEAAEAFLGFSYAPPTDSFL
Sequence of PIk3(h) (Q9H4B4 whole entry): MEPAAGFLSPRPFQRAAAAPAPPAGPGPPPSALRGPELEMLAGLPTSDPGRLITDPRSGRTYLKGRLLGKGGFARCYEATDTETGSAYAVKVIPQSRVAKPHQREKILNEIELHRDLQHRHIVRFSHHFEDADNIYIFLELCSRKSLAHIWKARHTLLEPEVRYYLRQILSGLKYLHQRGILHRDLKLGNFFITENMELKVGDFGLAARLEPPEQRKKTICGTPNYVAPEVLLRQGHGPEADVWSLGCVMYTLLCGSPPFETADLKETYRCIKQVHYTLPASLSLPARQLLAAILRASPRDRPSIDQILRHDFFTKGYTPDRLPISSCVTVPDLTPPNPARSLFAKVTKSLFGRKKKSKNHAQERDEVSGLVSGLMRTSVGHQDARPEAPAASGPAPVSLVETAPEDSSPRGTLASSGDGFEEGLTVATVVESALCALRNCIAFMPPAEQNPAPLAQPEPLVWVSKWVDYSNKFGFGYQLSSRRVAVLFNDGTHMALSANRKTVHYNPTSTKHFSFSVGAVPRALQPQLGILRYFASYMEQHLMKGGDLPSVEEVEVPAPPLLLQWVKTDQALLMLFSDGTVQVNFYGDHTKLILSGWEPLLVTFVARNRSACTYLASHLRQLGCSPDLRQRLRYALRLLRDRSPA
Sequence of Aurora-A(h) (O14965 whole entry): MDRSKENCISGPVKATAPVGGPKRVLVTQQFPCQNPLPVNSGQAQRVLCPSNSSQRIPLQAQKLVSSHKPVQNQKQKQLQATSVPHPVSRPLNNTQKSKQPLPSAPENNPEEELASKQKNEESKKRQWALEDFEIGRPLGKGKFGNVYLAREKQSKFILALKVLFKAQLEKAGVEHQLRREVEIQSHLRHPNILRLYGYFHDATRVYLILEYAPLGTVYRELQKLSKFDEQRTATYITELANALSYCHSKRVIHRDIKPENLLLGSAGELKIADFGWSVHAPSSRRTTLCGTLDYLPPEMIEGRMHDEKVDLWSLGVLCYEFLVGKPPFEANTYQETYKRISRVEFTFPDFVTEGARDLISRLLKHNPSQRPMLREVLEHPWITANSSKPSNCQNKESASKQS
Sequence of Flt1(h) (P17948 27-1338): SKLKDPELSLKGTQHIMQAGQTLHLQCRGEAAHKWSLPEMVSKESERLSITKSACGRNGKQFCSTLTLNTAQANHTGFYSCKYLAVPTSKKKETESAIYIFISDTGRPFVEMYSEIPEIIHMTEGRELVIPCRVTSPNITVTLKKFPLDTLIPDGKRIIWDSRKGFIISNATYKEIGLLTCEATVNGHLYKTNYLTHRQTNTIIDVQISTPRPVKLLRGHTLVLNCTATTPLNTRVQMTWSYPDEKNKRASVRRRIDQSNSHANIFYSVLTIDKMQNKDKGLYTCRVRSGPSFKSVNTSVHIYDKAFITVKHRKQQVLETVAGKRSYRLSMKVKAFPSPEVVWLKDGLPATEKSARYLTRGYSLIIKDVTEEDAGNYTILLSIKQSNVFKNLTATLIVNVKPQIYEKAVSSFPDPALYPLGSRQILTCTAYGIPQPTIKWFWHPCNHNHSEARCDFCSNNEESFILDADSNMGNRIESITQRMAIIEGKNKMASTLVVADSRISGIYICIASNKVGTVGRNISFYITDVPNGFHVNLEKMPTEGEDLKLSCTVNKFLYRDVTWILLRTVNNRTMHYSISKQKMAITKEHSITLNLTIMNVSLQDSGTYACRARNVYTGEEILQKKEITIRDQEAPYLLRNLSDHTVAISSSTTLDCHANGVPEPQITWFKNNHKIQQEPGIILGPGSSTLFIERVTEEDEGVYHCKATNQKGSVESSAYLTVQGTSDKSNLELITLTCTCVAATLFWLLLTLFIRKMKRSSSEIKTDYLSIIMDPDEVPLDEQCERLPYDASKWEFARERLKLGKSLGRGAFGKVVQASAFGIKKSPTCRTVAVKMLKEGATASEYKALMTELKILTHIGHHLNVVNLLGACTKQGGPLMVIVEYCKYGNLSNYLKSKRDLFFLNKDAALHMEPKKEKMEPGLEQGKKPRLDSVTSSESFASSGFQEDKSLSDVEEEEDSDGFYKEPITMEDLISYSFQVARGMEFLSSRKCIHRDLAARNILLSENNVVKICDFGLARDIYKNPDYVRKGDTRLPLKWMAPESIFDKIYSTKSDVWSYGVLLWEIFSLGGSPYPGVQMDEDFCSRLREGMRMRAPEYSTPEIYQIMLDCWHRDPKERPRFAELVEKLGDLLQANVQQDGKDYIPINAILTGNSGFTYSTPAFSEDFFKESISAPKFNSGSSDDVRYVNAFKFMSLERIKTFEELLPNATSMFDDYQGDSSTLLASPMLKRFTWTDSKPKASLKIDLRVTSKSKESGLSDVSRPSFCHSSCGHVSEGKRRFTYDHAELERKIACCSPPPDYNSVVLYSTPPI
Sequence of SGK2(h) (Q9HBY8 whole entry): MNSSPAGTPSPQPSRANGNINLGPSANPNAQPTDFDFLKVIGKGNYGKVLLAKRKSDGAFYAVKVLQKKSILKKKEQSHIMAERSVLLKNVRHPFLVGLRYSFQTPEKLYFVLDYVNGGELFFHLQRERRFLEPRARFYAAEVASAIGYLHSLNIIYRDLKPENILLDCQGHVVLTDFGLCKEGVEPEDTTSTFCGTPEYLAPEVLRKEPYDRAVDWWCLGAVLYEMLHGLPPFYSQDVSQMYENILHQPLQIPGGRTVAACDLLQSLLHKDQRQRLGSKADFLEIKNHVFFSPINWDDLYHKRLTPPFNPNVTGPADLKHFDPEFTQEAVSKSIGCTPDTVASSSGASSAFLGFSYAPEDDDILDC

| Compound | percent activity of NEK3(h) (NEK3(h)) [%] | percent activity of Ros(h) (Ros(h)) [%] | percent activity of Pim-1(h) (Pim-1(h)) [%] | percent activity of SGK2(h) (SGK2(h)) [%] | percent activity of NLK(h) (NLK(h)) [%] | percent activity of IKKα(h) (IKKα(h)) [%] | percent activity of Rsk1(h) (Rsk1(h)) [%] | percent activity of MST1(h) (MST1(h)) [%] | percent activity of CDK5/p35(h) (CDK5/p35(h)) [%] | percent activity of JNK1α1(h) (JNK1α1(h)) [%] | percent activity of CDK9/cyclin T1(h) (CDK9/cyclin T1(h)) [%] | percent activity of cKit(h) (cKit(h)) [%] | percent activity of SAPK2a(T106M)(h) (SAPK2a(T106M)(h)) [%] | percent activity of SAPK2a(h) (SAPK2a(h)) [%] | percent activity of Flt1(h) (Flt1(h)) [%] | percent activity of FGFR1(h) (FGFR1(h)) [%] | percent activity of NEK6(h) (NEK6(h)) [%] | percent activity of MSK2(h) (MSK2(h)) [%] | percent activity of PIk3(h) (PIk3(h)) [%] | percent activity of CDK7/cyclinH/MAT1(h) (CDK7/cyclinH/MAT1(h)) [%] | other results |
| --- | --- | --- | --- | --- | --- | --- | --- | --- | --- | --- | --- | --- | --- | --- | --- | --- | --- | --- | --- | --- | --- |
| O=C(O)[C@H]1O[C@@H](Oc2ccc(/C=C/c3cc(O)cc(O)c3)cc2)[C@H](O)[C@@H](O)[C@@H]1O [Res 4′-Gluc, resveratrol-4-glucuronide] | 105 | 105 | 31 | 91 | 99 | 113 | 104 | 106 | 104 | 91 | 105 | 100 | 109 | 107 | 76 | 45 | 107 | 94 | 86 | 110 | percent activity of PDGFRβ(h) (PDGFRβ(h)): 119%; percent activity of DAPK2(h) (DAPK2(h)): 92%; percent activity of SGK(h) (SGK(h)): 48%; percent activity of PKBβ(h) (PKBβ(h); [1]): 94%; percent activity of ALK(h) (ALK(h)): 87%; percent activity of DAPK1(h) (DAPK1(h)): 107%; percent activity of PDGFRα(h) (PDGFRα(h)): 114%; percent activity of CDK5/p25(h) (CDK5/p25(h)): 91%; percent activity of SAPK4(h) (SAPK4(h)): 104%; percent activity of EGFR(h) (EGFR(h)): 106%; percent activity of Aurora-A(h) (Aurora-A(h)): 33%; percent activity of Met(h) (Met(h)): 122%; percent activity of LKB1(h) (LKB1(h)): 95%; percent activity of TrkB(h) (TrkB(h)): 100%; percent activity of MST2(h) (MST2(h)): 120%; percent activity of PKBα(h) (PKBα(h); [1]): 96%; percent activity of Fgr(h) (Fgr(h)): 67%; percent activity of Fms(h) (Fms(h)): 94%; percent activity of CSK(h) (CSK(h)): 100%; percent activity of p70S6K(h) (p70S6K(h)): 54% |
| Oc1ccc(C=Cc2cc(O)cc(O)c2)cc1 [resveratrol, 3,5,4′-trihydroxystilbene] | 96 | 102 | 6 | 70 | 30 | 40 | 70 | 75 | 77 | 89 | 70 | 68 | 102 | 100 | 52 | 58 | 140 | 60 | 95 | 95 | percent activity of PDGFRβ(h) (PDGFRβ(h)): 119%; percent activity of DAPK2(h) (DAPK2(h)): 67%; percent activity of SGK(h) (SGK(h)): 86%; activity at 20 µM (PKBβ(h); read-out: percent activity of PKBβ(h)): 105%; percent activity of ALK(h) (ALK(h)): 39%; percent activity of DAPK1(h) (DAPK1(h)): 71%; percent activity of PDGFRα(h) (PDGFRα(h)): 114%; percent activity of CDK5/p25(h) (CDK5/p25(h)): 64%; percent activity of SAPK4(h) (SAPK4(h)): 92%; percent activity of EGFR(h) (EGFR(h)): 90%; percent activity of Aurora-A(h) (Aurora-A(h)): 65%; percent activity of Met(h) (Met(h)): 114%; percent activity of LKB1(h) (LKB1(h)): 102%; percent activity of TrkB(h) (TrkB(h)): 98%; percent activity of MST2(h) (MST2(h)): 73%; activity at 20 µM (PKBα(h); read-out: percent activity of PKBα(h)): 94%; percent activity of Fgr(h) (Fgr(h)): 78%; percent activity of Fms(h) (Fms(h)): 61%; percent activity of CSK(h) (CSK(h)): 94%; percent activity of p70S6K(h) (p70S6K(h)): 21% |
